Results on 22 compounds are retold here after patent US8003649B2 (AstraZeneca AB, priority 2007, dated 2011).

The structures appear in SMILES notation.

In the test the target is T1, Androgen Receptor (AR) (Homo sapiens, UniProt P10275, T878A).
T1 construct: cell based immuno-fluorescence assay using the LNCaP prostate epithelial cell line; endogenous in cells; host or cells: LNCaP clone FGC (ATCC CRL-1740)
T1 sequence (P10275 1-920 T878A): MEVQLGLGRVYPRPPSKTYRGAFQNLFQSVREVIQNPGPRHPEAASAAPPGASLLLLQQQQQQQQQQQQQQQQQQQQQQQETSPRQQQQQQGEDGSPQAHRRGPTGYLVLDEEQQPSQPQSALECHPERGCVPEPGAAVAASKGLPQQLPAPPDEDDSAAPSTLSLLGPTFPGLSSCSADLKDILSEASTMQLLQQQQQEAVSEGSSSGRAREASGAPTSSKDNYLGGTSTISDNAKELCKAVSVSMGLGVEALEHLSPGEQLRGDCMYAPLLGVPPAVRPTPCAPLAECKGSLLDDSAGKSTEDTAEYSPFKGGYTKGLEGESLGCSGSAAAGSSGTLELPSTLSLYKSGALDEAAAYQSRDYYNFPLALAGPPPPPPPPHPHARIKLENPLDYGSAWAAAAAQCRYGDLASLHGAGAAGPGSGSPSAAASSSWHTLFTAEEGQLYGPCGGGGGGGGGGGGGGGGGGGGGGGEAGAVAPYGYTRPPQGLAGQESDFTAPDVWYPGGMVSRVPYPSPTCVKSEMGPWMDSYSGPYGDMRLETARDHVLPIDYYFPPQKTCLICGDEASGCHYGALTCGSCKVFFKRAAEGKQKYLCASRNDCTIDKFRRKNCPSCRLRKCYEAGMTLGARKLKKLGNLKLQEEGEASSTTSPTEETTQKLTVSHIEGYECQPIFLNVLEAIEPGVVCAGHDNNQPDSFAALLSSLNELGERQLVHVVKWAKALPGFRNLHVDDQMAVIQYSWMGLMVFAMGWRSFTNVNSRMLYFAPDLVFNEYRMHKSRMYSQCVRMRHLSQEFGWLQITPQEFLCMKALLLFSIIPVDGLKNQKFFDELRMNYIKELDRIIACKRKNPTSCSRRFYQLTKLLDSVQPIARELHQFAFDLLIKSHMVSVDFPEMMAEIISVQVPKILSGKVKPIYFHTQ
Briefly: LNCaP Androgen Receptor Down-regulation Cell Assay (immunofluorescence end point). Format: cell-based. The following applies: LNCaP prostate carcinoma cells, compound incubation 20-22 hours, 50% reduction of the AR signal; read-out: Androgen Receptor Down-regulation Assay (a) IC50/μM. The method, then: The ability of compounds to reduce Androgen Receptor (AR) numbers was assessed in a cell based immuno-fluorescence assay using the LNCaP prostate epithelial cell line.
a) LNCaP Androgen Receptor Down-regulation Cell Assay
A 5 ml volume of Growth Medium was added to each flask (as above except that 5% (v/v) charcoal stripped FBS (HyClone Code no. SH30068.03) was included instead of 10% (v/v) FBS). Cells were syringed at least twice using a sterile 18G×1.5″ (1.2×40 mm) broad gauge needle and cell density was measured using a haemocytometer.
Test data reported herein was generated using two different compounds preparation and dosing methods. In method (1) a 10 mM compound stock solution in 100% (v/v) DMSO was serially diluted in 4-fold steps in 100% (v/v) DMSO using a Thermo Scientific Matrix SerialMate. The diluted compounds were then further diluted 1 in 30 in assay media using a Thermo Scientific Matrix PlateMate and a 10 μl aliquot of this dilution was dosed to cells manually using a multi-channel pipette. In method (2) starting with a 10 mM compound stock solution, the Labcyte Echo 550 was used to generate a compound concentration response set diluted in 30 μl of assay media. The Echo 550 is a liquid handler that uses acoustic technology to perform direct microplate-to-microplate transfers of DMSO compound solutions. The system can be programmed to transfer volumes as low as […] in multiple increments between microplates and in so doing generates a serial dilution of compound which is then back-filled to normalise the DMSO concentration across the dilution range. A 10 μl volume of diluted compound is then dosed to cells using a Thermo Scientific Matrix PlateMate.
Plates were incubated overnight at 37° C., 5% CO2. Wells were then dosed with compound prepared by one of the 2 methods above and further incubated for 20-22 hours at 37° C., 5% CO2. […] This fixative solution was removed and cells were washed with 250 μl of PBS/0.05% (v/v) Tween 20 (PBST) using an automated plate washer. This process was then repeated twice more.
Immunostaining was performed at room temperature. Cells were permeabilised by the addition of 35 μl of PBS containing 0.5% Tween 20 and incubated for 1 hour at room temperature. Permeabilisation solution was removed and cells were washed with 250 μl of PBST using an automated plate washer. This process was then repeated twice more. 35 μl of Blocking Solution (PBST containing 3% (w/v) Marvel dried skimmed milk (Nestle)) was added to each well and plates were incubated at room temperature for a minimum of 1 hour. […] Then this primary antibody solution was removed from the wells followed by 3×100 μl PBST washes using a plate washer. […] Henceforth, wherever possible, plates were protected from light exposure. The plates were incubated for 1 hour and then the secondary antibody solution was removed from the wells followed by 3×100 ul PBST washes using a plate washer. Then 50 μl of PBST was added to each well and plates were covered with a black plate seal and stored at 4° C. before being read. Plates were read within six hours of completing the immunostaining.
The Green Fluorescent AR-associated signal in each well was measured using an Acumen Explorer HTS Reader (TTP Labtech Ltd., Cambridge). […] The instrument is a laser-scanning fluorescence microplate cytometer which samples the well at regular intervals and uses threshold algorithms to identify all fluorescent intensities above the solution background without the need to generate and analyse an image. These fluorescent objects can be quantified and provide a measure of the AR levels in cells. Fluorescence dose response data obtained with each compound was exported into a suitable software package (such as Origin) to perform curve fitting analysis. Down-regulation of AR levels was expressed as an IC50 value.
For `FC(F)C(F)(F)c1nnc2ccc(N3CCN(C(c4ccccc4)c4ccccc4)CC3)nn12` [Example 1, 6-(4-benzhydrylpiperazin-1-yl)-3-(1,1,2,2-tetrafluoroethyl)-[1,2,4]triazolo[4,3-b]pyridazine], the DC50 was found to be 3.4 µM. As for `FC(F)C(F)(F)c1nnc2ccc(N3CCCN(Cc4ccccc4)CC3)nn12` [Example 2, 6-(4-benzyl-1,4-diazepan-1-yl)-3-(1,1,2,2-tetrafluoroethyl)-[1,2,4]triazolo[4,3-b]pyridazine], the figure is 8.3 µM; as for `FC(F)c1nnc2ccc(N3CCN(C(c4ccccc4)c4ccccc4)CC3)nn12` [Example 5, 6-(4-benzhydrylpiperazin-1-yl)-3-(difluoromethyl)-[1,2,4]triazolo[4,3-b]pyridazine], 1.6 µM; as for `FC(F)c1nnc2ccc(N3CCCN(Cc4ccccc4)CC3)nn12` [Example 6, 6-(4-benzyl-1,4-diazepan-1-yl)-3-(difluoromethyl)-[1,2,4]triazolo[4,3-b]pyridazine], 7.5 µM. The value for `Clc1nnc2ccc(N3CCN(C(c4ccccc4)c4ccccc4)CC3)nn12` [Example 8, 6-(4-benzhydrylpiperazin-1-yl)-3-chloro-[1,2,4]triazolo[4,3-b]pyridazine] was 1.7 µM. The value for `CSc1nnc2ccc(N3CCN(C(c4ccccc4)c4ccccc4)CC3)nn12` [Example 9, 6-(4-benzhydrylpiperazin-1-yl)-3-methylsulfanyl-[1,2,4]triazolo[4,3-b]pyridazine] was 1.7 µM; that for `FC(F)(F)c1nnc2ccc(N3CCN(c4ccc(Br)cn4)CC3)nn12` [Example 11, 6-[4-(5-bromopyridin-2-yl)piperazin-1-yl]-3-(trifluoromethyl)-[1,2,4]triazolo[4,3-b]pyridazine] was 2.5 µM. As for `Cc1cc(N2CCN(Cc3ccc(C#N)cc3)CC2)nn2c(C(F)(F)F)nnc12` [Example 12, 4-((4-(8-Methyl-3-(trifluoromethyl)-[1,2,4]triazolo[4,3-b]pyridazin-6-yl)piperazin-1-yl)methyl)benzonitrile], the DC50 was determined as 4.3 µM.

Consider `Cc1cc2nnc(C(F)(F)F)n2nc1N1CCN(Cc2ccc(C#N)cc2)CC1` [Example 13, 4-((4-(7-Methyl-3-(trifluoromethyl)-[1,2,4]triazolo[4,3-b]pyridazin-6-yl)piperazin-1-yl)methyl)benzonitrile], for which the DC50 worked out at 8.4 µM. As for `FC(F)(F)c1nnc2ccc(N3CCN(Cc4ccc(Cl)cc4)CC3)nn12` [Example 14, 6-[4-[(4-chlorophenyl)methyl]piperazin-1-yl]-3-(trifluoromethyl)-[1,2,4]triazolo[4,3-b]pyridazine], the DC50 stood at 0.69 µM. As for `COc1ccc(CN2CCN(c3ccc4nnc(C(F)(F)F)n4n3)CC2)cc1` [Example 15, 6-[4-[(4-methoxyphenyl)methyl]piperazin-1-yl]-3-(trifluoromethyl)-[1,2,4]triazolo[4,3-b]pyridazine], the figure is 2.5 µM; as for `Cc1cccc(C)c1N1CCN(c2ccc3nnc(C(F)(F)F)n3n2)CC1` [Example 16, 6-[4-(2,6-dimethylphenyl)piperazin-1-yl]-3-(trifluoromethyl)-[1,2,4]triazolo[4,3-b]pyridazine], 0.77 µM. As for `CC(=O)c1ccc(N2CCN(c3ccc4nnc(C(F)(F)F)n4n3)CC2)cc1` [Example 17, 1-[4-[4-[3-(trifluoromethyl)-[1,2,4]triazolo[4,3-b]pyridazin-6-yl]piperazin-1-yl]phenyl]ethanone], the figure is 2.5 µM; as for `FC(F)(F)c1nnc2ccc(N3CCN(c4c(Cl)cncc4Cl)CC3)nn12` [Example 19, 6-[4-(3,5-dichloropyridin-4-yl)piperazin-1-yl]-3-(trifluoromethyl)-[1,2,4]triazolo[4,3-b]pyridazine], 0.52 µM; as for `O=C1NCN(c2ccccc2)C12CCN(c1ccc3nnc(C(F)(F)F)n3n1)CC2` [Example 20, 1-phenyl-8-[3-(trifluoromethyl)-[1,2,4]triazolo[4,3-b]pyridazin-6-yl]-1,3,8-triazaspiro[4.5]decan-4-one], 1.8 µM. As for `O=[N+]([O-])c1ccc(N2CCN(c3ccc4nnc(C(F)(F)F)n4n3)CC2)cc1` [Example 21, 6-[4-(4-nitrophenyl)piperazin-1-yl]-3-(trifluoromethyl)-[1,2,4]triazolo[4,3-b]pyridazine], the figure is 0.27 µM; as for `FC(F)(F)c1nnc2ccc(N3CCN(C(c4ccccc4)c4ccccc4)CC3)nn12` [Example 22, 6-(4-benzhydrylpiperazin-1-yl)-3-(trifluoromethyl)-[1,2,4]triazolo[4,3-b]pyridazine], 1.4 µM; as for `FC(F)(F)c1nnc2ccc(N3CCN(CCc4ccccc4)CC3)nn12` [Example 23, 6-(4-phenethylpiperazin-1-yl)-3-(trifluoromethyl)-[1,2,4]triazolo[4,3-b]pyridazine], 0.45 µM. As for `O=C(CN1CCN(c2ccc3nnc(C(F)(F)F)n3n2)CC1)N1CCCCC1` [Example 24, 1-piperidin-1-yl-2-[4-[3-(trifluoromethyl)-[1,2,4]triazolo[4,3-b]pyridazin-6-yl]piperazin-1-yl]ethanone], the DC50 is more than 26 µM.

As for `COc1ccc(C(c2ccccc2)N2CCN(c3ccc4nnc(C(F)(F)F)n4n3)CC2)cc1` (stereo not shown) [Example 25, 6-[4-[(4-methoxyphenyl)-phenylmethyl]piperazin-1-yl]-3-(trifluoromethyl)-[1,2,4]triazolo[4,3-b]pyridazine], the DC50 worked out at 1.1 µM. As for `FC(F)(F)c1ccc(C(c2ccccc2)N2CCN(c3ccc4nnc(C(F)(F)F)n4n3)CC2)cc1` (stereo not shown) [Example 26, 6-[4-[phenyl-[4-(trifluoromethyl)phenyl]methyl]piperazin-1-yl]-3-(trifluoromethyl)-[1,2,4]triazolo[4,3-b]pyridazine], the DC50 came to 1 µM.

As to `Cc1cc(NCC2CC[C@@H]3CN(c4ccc5nnc(C(F)(F)F)n5n4)CCN3C2)c2ccccc2n1` (stereo partly drawn) [Example 28, N-[[(9aR)-2-[3-(trifluoromethyl)-[1,2,4]triazolo[4,3-b]pyridazin-6-yl]-1,3,4,6,7,8,9,9a-octahydropyrido[1,6-a]pyrazin-7-yl]methyl]-2-methylquinolin-4-amine], the DC50 was 2.8 µM.
